This is an account of results in patent US9884063B2, “Amido-substituted azole compounds” (Bayer Pharma Aktiengesellschaft, priority 2014, dated 2018).

In one test the target is T1, TNKS2 (Homo sapiens, UniProt Q9H2K2).
T1 sequence (Q9H2K2 1-1166): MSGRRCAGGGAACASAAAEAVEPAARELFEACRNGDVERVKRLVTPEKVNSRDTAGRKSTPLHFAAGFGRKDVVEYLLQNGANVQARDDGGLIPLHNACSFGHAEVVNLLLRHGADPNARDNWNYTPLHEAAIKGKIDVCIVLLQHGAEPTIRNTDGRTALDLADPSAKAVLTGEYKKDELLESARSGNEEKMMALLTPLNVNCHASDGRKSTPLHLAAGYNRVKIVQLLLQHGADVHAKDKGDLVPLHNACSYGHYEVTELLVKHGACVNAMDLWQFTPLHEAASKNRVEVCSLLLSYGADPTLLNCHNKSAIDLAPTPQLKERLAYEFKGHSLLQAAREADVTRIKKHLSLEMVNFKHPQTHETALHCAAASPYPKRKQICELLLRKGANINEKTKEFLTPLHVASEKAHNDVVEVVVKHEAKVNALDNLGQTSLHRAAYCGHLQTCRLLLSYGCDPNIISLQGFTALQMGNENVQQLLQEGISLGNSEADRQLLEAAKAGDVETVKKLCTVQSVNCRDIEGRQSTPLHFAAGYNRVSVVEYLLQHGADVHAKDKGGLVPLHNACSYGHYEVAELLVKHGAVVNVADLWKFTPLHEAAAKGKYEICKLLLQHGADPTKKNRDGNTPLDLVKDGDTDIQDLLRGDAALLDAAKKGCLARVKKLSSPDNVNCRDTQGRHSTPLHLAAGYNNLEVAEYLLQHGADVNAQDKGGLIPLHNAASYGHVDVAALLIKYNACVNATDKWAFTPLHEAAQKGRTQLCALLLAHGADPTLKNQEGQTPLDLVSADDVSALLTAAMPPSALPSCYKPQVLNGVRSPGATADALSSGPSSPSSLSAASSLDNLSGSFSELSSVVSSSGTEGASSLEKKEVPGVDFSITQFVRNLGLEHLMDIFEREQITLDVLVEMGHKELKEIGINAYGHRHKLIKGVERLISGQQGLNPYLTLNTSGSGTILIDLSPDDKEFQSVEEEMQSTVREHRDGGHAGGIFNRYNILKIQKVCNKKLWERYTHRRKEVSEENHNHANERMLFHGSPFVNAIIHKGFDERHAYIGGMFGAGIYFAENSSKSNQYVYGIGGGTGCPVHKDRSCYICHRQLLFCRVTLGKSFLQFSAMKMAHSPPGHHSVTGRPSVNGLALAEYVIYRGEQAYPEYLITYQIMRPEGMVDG
The test can be described thus: Modified TNKS2 Assay 3 (BPS kit #80578, biotin-NAD+, 96 well). As to conditions: human TNKS2, BPS kit #80578, 96 well. The class given is biochemical. The procedure: The potency of the compounds against human TNKS2 according to the invention was assessed using a commercially available biotin/streptavidin binding assay kits from BPS Bioscience, San Diego, USA (Catalog #80578 for TNKS2). The incorporation of a biotin-labeled NAD+ during the […] catalyzed ribosylation of a suitable protein substrate was detected using with a streptavidin-HRP coupled chemi-luminescent readout. The intensity of the readout signal is proportional to the incorporated NAD^+. Inhibition of TNKS2 leads to a decreased incorporation of NAD^+ and consequently to a lower readout signal intensity in the corresponding TNKS2 assays. The concentration of a test compound that inhibits the enzyme activity by 50% (corresponds to half of the normed readout signal intensity) is reported as IC50. The assay conducted in a 96 well MTP format according to the manufacturer's protocol and using a BMG Pherastar MTP reader [BMG-Labtech, Offenburg, Germany].

Test [1] deals with wildtype Wnt signaling cascade. Description: HEK293 TOP Assay (Super TopFlash luciferase reporter, Wnt-3a stimulated). As to conditions: Homo sapiens, HEK293, 16 h, HEK293 TOP reporter cell line, Wnt-3a at EC50, 16 hours incubation, compound dilution series 50 μM to 15 nM. The class given is cell-based. In a few lines: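 HEK293 cells stably carrying Super TopFlash (TOP) or FOP reporter, stimulated with recombinant human Wnt-3a (2500–5 ng/ml, two-fold steps). Both lines incubated in parallel with compound from 50 μM to 15 nM (3.16-fold) in CAFTY buffer pH 7.4 with 2 mM Ca2+ and 0.01% BSA; selectivity judged TOP vs FOP.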
A general note: Reporter assays use an easily measured gene product as a stand-in for the process of interest.

Test [2] concerns HEK293 FOP control reporter cell line. The test can be described thus: HEK293 FOP Assay (FOP control vector luciferase reporter). As to conditions: Homo sapiens; HEK293 FOP control reporter cell line, 16 hours incubation, compound dilution series 50 μM to 15 nM. The class given is cell-based. In a few lines: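 Stable HEK293 line carrying the FOP vector (randomized, non-functional TCF sites; Geneticin-selected) was run in parallel with the TOP line. Cells were plated 24 h ahead at 10000/well and given recombinant human Wnt-3a at 2500–5 ng/ml. Compounds were tested at 50 μM–15 nM (3.16-fold steps) in CAFTY buffer, pH 7.4, with 2 mM Ca2+ and 0.01% BSA.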

What is called IC50 is the concentration needed to halve the response being measured. Lower therefore signals inhibition by little substance.

SMILES strings stand for the structures.

With `CC1CCCCN1CCNC(=O)c1[nH]cnc1C(=O)Nc1ccc(NC(=O)c2ccccc2Cl)cc1` (stereo not drawn) [Example 153, N^4-{4-[(2-chlorobenzoyl)amino]phenyl}-N^5-[2-(2-methylpiperidin-1-yl)ethyl]-1H-imidazole-4,5-dicarboxamide], the results for the IC50 (at TNKS2; in test [1]; in test [2]) were 5 nM, 190 nM and 35000 nM, respectively.

With `O=C(Nc1ccc(NC(=O)c2nc[nH]c2C(=O)NCCCCN2CCCCC2)cc1)c1ccc(F)cc1Cl` [Example 196, N^4-{4-[(2-chloro-4-fluorobenzoyl)amino]phenyl}-N^5-[4-(piperidin-1-yl)butyl]-1H-imidazole-4,5-dicarboxamide], the 50% inhibitory concentration (IC50) at TNKS2 is 20 nM; in test [1], 650 nM; in test [2], 30000 nM.

For the molecule `O=C(Nc1ccc(NC(=O)c2nc[nH]c2C(=O)NCCN2CCCC(O)C2)cc1)c1ccc(F)cc1Cl` (stereo not drawn) [Example 229, N^4-{4-[(2-chloro-4-fluorobenzoyl)amino]phenyl}-N^5-[2-(3-hydroxypiperidin-1-yl)ethyl]-1H-imidazole-4,5-dicarboxamide], the IC50 on TNKS2 came out at 4 nM; in test [1], 110 nM; in test [2], 44500 nM.

Regarding `CN1CCN(CCNC(=O)c2[nH]cnc2C(=O)Nc2ccc(NC(=O)c3ccc(F)cc3Cl)cc2)CC1` [Example 238, N^4-{4-[(2-chloro-4-fluorobenzoyl)amino]phenyl}-N^5-[2-(4-methylpiperazin-1-yl)ethyl]-1H-imidazole-4,5-dicarboxamide], the IC50 against TNKS2 stood at 2 nM; in test [1], 180 nM; in test [2], 29000 nM.

With `O=C(Nc1ccc(NC(=O)c2nc[nH]c2C(=O)NCCN2CCC2)cc1)c1ccccc1Cl` [Example 190, N^5-[2-(azetidin-1-yl)ethyl]-N4-{4-[(2-chlorobenzoyl)amino]phenyl}-1H-imidazole-4,5-dicarboxamide], the IC50 is 2 nM against TNKS2, 190 nM in test [1] and 18000 nM in test [2].
